Laboratory results reported in a compilation of properties of binary mixtures (doi:10.1016/j.molliq.2020.114495).

Test: xn = mol fraction of the nth substance listed
Settings: 100 kPa

OCCO + O=S(=O)([N-]S(=O)(=O)C(F)(F)F)C(F)(F)F.[Li+]
x2 = 0
Settings	viscosity [mPa·s]
303 K	13.53
318.1 K	9.59
333 K	7.47

O=S(=O)([N-]S(=O)(=O)C(F)(F)F)C(F)(F)F.[Li+] + OCCO
Settings	electrical conductivity, 303 K [S/m]	electrical conductivity, 318.1 K [S/m]	electrical conductivity, 333 K [S/m]	viscosity, 303 K [mPa·s]	viscosity, 318.1 K [mPa·s]	viscosity, 333 K [mPa·s]
x1 = 0.143	0.129	0.296	0.516	18.14	12.79	8.55
x1 = 0.167	0.275	0.604	0.928	19.25	13.57	8.71
x1 = 0.2	0.305	0.738	1.2	21.4	14.53	10.21
x1 = 0.25	0.291	0.623	1.07	23.79	16.35	10.61
x1 = 0.333	0.281	0.559	0.88	30.24	18.69	11.02
x1 = 0.5	0.275	0.534	–	58.8	35.26	–
